Source: BigSolDB 2.1

Work on CC(=O)c1c(O)ccc2ccccc12 yielded a solubility (mole fraction) (in cyclohexane, 292.9 K) of 0.0181, a solubility (mole fraction) (in cyclohexane, 296.6 K) of 0.0229 and a solubility (mole fraction) (in cyclohexane, 300.7 K) of 0.0292. For the same molecule, the solubility (mole fraction) (in cyclohexane, 304.8 K) was 0.0379, the solubility (mole fraction) (in cyclohexane, 308.85 K) was 0.0505 and the solubility (mole fraction) (in cyclohexane, 312.6 K) was 0.068. For the same molecule, the solubility (mole fraction) (in cyclohexane, 316.25 K) was 0.0957, the solubility (mole fraction) (in cyclohexane, 318.95 K) was 0.132 and the solubility (mole fraction) (in cyclohexane, 320.35 K) was 0.162. It also gave a solubility (mole fraction) (in cyclohexane, 321.85 K) of 0.19, a solubility (mole fraction) (in ethanol, 285.7 K) of 0.0615 and a solubility (mole fraction) (in ethanol, 288.9 K) of 0.0712. It also gave a solubility (mole fraction) (in ethanol, 293.05 K) of 0.0859, a solubility (mole fraction) (in ethanol, 297 K) of 0.104 and a solubility (mole fraction) (in ethanol, 301.15 K) of 0.135. For the same molecule, the solubility (mole fraction) (in ethanol, 304.55 K) was 0.168, the solubility (mole fraction) (in ethanol, 310.05 K) was 0.234 and the solubility (mole fraction) (in ethanol, 314.65 K) was 0.321. The solubility (mole fraction) (in n-butanol, 282.55 K) was 0.0555, the solubility (mole fraction) (in n-butanol, 288.55 K) was 0.0724 and the solubility (mole fraction) (in n-butanol, 293.35 K) was 0.0897. For the same molecule, the solubility (mole fraction) (in n-butanol, 299 K) was 0.117, the solubility (mole fraction) (in n-butanol, 303.95 K) was 0.155 and the solubility (mole fraction) (in n-butanol, 307.95 K) was 0.201. For the same molecule, the solubility (mole fraction) (in n-butanol, 311.75 K) was 0.257, the solubility (mole fraction) (in n-butanol, 314.95 K) was 0.328 and the solubility (mole fraction) (in n-butanol, 317.35 K) was 0.389. For the same molecule, the solubility (mole fraction) (in n-butanol, 318.15 K) was 0.408, the solubility (mole fraction) (in n-heptane, 288.75 K) was 0.0133 and the solubility (mole fraction) (in n-heptane, 293.15 K) was 0.0163. The solubility (mole fraction) (in n-heptane, 296.95 K) was 0.0198, the solubility (mole fraction) (in n-heptane, 301.8 K) was 0.0239 and the solubility (mole fraction) (in n-heptane, 302.4 K) was 0.0245. It also gave a solubility (mole fraction) (in n-heptane, 306.55 K) of 0.0305, a solubility (mole fraction) (in n-heptane, 312.05 K) of 0.0404 and a solubility (mole fraction) (in n-heptane, 317.15 K) of 0.056. For the same molecule, the solubility (mole fraction) (in n-heptane, 322.05 K) was 0.079, the solubility (mole fraction) (in n-heptane, 326.05 K) was 0.115 and the solubility (mole fraction) (in n-heptane, 328.45 K) was 0.166. The solubility (mole fraction) (in n-heptane, 329.25 K) was 0.214, the solubility (mole fraction) (in n-hexane, 283.75 K) was 0.0082 and the solubility (mole fraction) (in n-hexane, 289.25 K) was 0.0107. The solubility (mole fraction) (in n-hexane, 295.55 K) was 0.0141, the solubility (mole fraction) (in n-hexane, 299.25 K) was 0.0175 and the solubility (mole fraction) (in n-hexane, 305.2 K) was 0.0242. For the same molecule, the solubility (mole fraction) (in n-hexane, 310.6 K) was 0.032, the solubility (mole fraction) (in n-hexane, 311.45 K) was 0.0339 and the solubility (mole fraction) (in n-hexane, 314.8 K) was 0.0414. For the same molecule, the solubility (mole fraction) (in n-hexane, 319.05 K) was 0.0529 and the solubility (mole fraction) (in n-hexane, 323.45 K) was 0.0716.
Work on CC(=O)c1ccc2ccccc2c1O yielded a solubility (mole fraction) (in cyclohexane, 292.4 K) of 0.0076, a solubility (mole fraction) (in cyclohexane, 296.55 K) of 0.0092 and a solubility (mole fraction) (in cyclohexane, 300.65 K) of 0.0114. The solubility (mole fraction) (in cyclohexane, 304.9 K) was 0.014, the solubility (mole fraction) (in cyclohexane, 308.6 K) was 0.0173 and the solubility (mole fraction) (in cyclohexane, 313.55 K) was 0.0222. For the same molecule, the solubility (mole fraction) (in cyclohexane, 318.5 K) was 0.0285, the solubility (mole fraction) (in cyclohexane, 324.75 K) was 0.0382 and the solubility (mole fraction) (in cyclohexane, 329.65 K) was 0.0511. For the same molecule, the solubility (mole fraction) (in cyclohexane, 333.95 K) was 0.0679, the solubility (mole fraction) (in cyclohexane, 337.6 K) was 0.0872 and the solubility (mole fraction) (in cyclohexane, 340.65 K) was 0.109. It also gave a solubility (mole fraction) (in ethanol, 289.15 K) of 0.0049, a solubility (mole fraction) (in ethanol, 292.6 K) of 0.0055 and a solubility (mole fraction) (in ethanol, 296.25 K) of 0.0064. It also gave a solubility (mole fraction) (in ethanol, 299.95 K) of 0.0075, a solubility (mole fraction) (in ethanol, 304.55 K) of 0.0089 and a solubility (mole fraction) (in ethanol, 307.95 K) of 0.0104. It also gave a solubility (mole fraction) (in ethanol, 310.55 K) of 0.0117, a solubility (mole fraction) (in ethanol, 312.9 K) of 0.013 and a solubility (mole fraction) (in ethanol, 316.4 K) of 0.015. It also gave a solubility (mole fraction) (in ethanol, 319.6 K) of 0.0174, a solubility (mole fraction) (in ethanol, 323.4 K) of 0.0207 and a solubility (mole fraction) (in ethanol, 327.35 K) of 0.025. It also gave a solubility (mole fraction) (in ethanol, 331.2 K) of 0.0313, a solubility (mole fraction) (in ethanol, 334.95 K) of 0.0399 and a solubility (mole fraction) (in ethanol, 338.65 K) of 0.052. The solubility (mole fraction) (in ethanol, 342.25 K) was 0.0696, the solubility (mole fraction) (in n-butanol, 280.85 K) was 0.0054 and the solubility (mole fraction) (in n-butanol, 285.65 K) was 0.0065. It also gave a solubility (mole fraction) (in n-butanol, 291.55 K) of 0.0084, a solubility (mole fraction) (in n-butanol, 295.65 K) of 0.0101 and a solubility (mole fraction) (in n-butanol, 299.45 K) of 0.012. The solubility (mole fraction) (in n-butanol, 303.75 K) was 0.0144, the solubility (mole fraction) (in n-butanol, 308.25 K) was 0.0179 and the solubility (mole fraction) (in n-butanol, 312.75 K) was 0.0219. It also gave a solubility (mole fraction) (in n-butanol, 318.65 K) of 0.0291, a solubility (mole fraction) (in n-butanol, 325.85 K) of 0.0431 and a solubility (mole fraction) (in n-butanol, 328.95 K) of 0.0523. The solubility (mole fraction) (in n-butanol, 332.65 K) was 0.0648, the solubility (mole fraction) (in n-butanol, 335.75 K) was 0.0788 and the solubility (mole fraction) (in n-butanol, 336.45 K) was 0.0831. The solubility (mole fraction) (in n-heptane, 290.65 K) was 0.008, the solubility (mole fraction) (in n-heptane, 295.25 K) was 0.0099 and the solubility (mole fraction) (in n-heptane, 299.9 K) was 0.0123. It also gave a solubility (mole fraction) (in n-heptane, 304.65 K) of 0.0153, a solubility (mole fraction) (in n-heptane, 310.15 K) of 0.019 and a solubility (mole fraction) (in n-heptane, 315.4 K) of 0.0239. It also gave a solubility (mole fraction) (in n-heptane, 321.65 K) of 0.0306, a solubility (mole fraction) (in n-heptane, 327.2 K) of 0.0395 and a solubility (mole fraction) (in n-heptane, 332.65 K) of 0.05. For the same molecule, the solubility (mole fraction) (in n-heptane, 338.55 K) was 0.0627, the solubility (mole fraction) (in n-heptane, 344.35 K) was 0.0898 and the solubility (mole fraction) (in n-heptane, 348.35 K) was 0.116. The solubility (mole fraction) (in n-hexane, 281.65 K) was 0.0045, the solubility (mole fraction) (in n-hexane, 286.55 K) was 0.0056 and the solubility (mole fraction) (in n-hexane, 289.75 K) was 0.0065. The solubility (mole fraction) (in n-hexane, 293.45 K) was 0.0077, the solubility (mole fraction) (in n-hexane, 297.35 K) was 0.0091 and the solubility (mole fraction) (in n-hexane, 301.95 K) was 0.0107. It also gave a solubility (mole fraction) (in n-hexane, 305.45 K) of 0.0129, a solubility (mole fraction) (in n-hexane, 309.95 K) of 0.0156 and a solubility (mole fraction) (in n-hexane, 314.25 K) of 0.0189. It also gave a solubility (mole fraction) (in n-hexane, 319.55 K) of 0.0236 and a solubility (mole fraction) (in n-hexane, 324.05 K) of 0.0288.
